Assays:
Assay in all cases: NCI-60 one-dose assay
Type in all cases: cell-based
[1] = system: NCI/ADR-RES; conditions: Homo sapiens, NCI/ADR-RES (ovarian cancer), read-out: Cell Inhibition Percent
[2] = system: HT29; conditions: Homo sapiens, HT-29, HT29 (Colon Cancer), read-out: Cell Inhibition Percent
[3] = system: HOP-62; conditions: Homo sapiens, HOP-62 (Non-Small Cell Lung Cancer), read-out: Cell Inhibition Percent
[4] = system: OVCAR-4; conditions: Homo sapiens, OVCAR-4 (ovarian cancer), read-out: Cell Inhibition Percent
[5] = system: CAKI-1; conditions: Homo sapiens, CAKI-1 (Renal Cancer), read-out: Cell Inhibition Percent
[6] = system: MDA-MB-468; conditions: Homo sapiens, MDA-MB-468 (Breast Cancer), read-out: Cell Inhibition Percent
[7] = system: KM12; conditions: Homo sapiens, KM12 (Colon Cancer), read-out: Cell Inhibition Percent
[8] = system: SF-268; conditions: Homo sapiens, SF-268 (CNS cancer), read-out: Cell Inhibition Percent
[9] = system: UACC-257; conditions: Homo sapiens, UACC-257 (Melanoma), read-out: Cell Inhibition Percent
[10] = system: HCC-2998; conditions: Homo sapiens, HCC-2998 (Colon Cancer), read-out: Cell Inhibition Percent
[11] = system: HS 578T; conditions: Homo sapiens, HS 578T (Breast Cancer), read-out: Cell Inhibition Percent
[12] = system: TK-10; conditions: Homo sapiens, TK-10 (Renal Cancer), read-out: Cell Inhibition Percent
[13] = system: CCRF-CEM; conditions: Homo sapiens, CCRF-CEM (Leukemia), read-out: Cell Inhibition Percent
[14] = system: HOP-92; conditions: Homo sapiens, HOP-92 (Non-Small Cell Lung Cancer), read-out: Cell Inhibition Percent
[15] = system: SK-MEL-28; conditions: Homo sapiens, SK-MEL-28 (Melanoma), read-out: Cell Inhibition Percent
[16] = system: SR; conditions: Homo sapiens, SR (Leukemia), read-out: Cell Inhibition Percent
[17] = system: DU-145; conditions: Homo sapiens, DU-145 (Prostate Cancer), read-out: Cell Inhibition Percent
[18] = system: 786-0; conditions: Homo sapiens, 786-0 (Renal Cancer), read-out: Cell Inhibition Percent
[19] = system: SW-620; conditions: Homo sapiens, SW-620 (Colon Cancer), read-out: Cell Inhibition Percent
[20] = system: NCI-H460; conditions: Homo sapiens, NCI-H460 (Non-Small Cell Lung Cancer), read-out: Cell Inhibition Percent
[21] = system: SN12C; conditions: Homo sapiens, SN12C (Renal Cancer), read-out: Cell Inhibition Percent
[22] = system: NCI-H226; conditions: Homo sapiens, NCI-H226 (Non-Small Cell Lung Cancer), read-out: Cell Inhibition Percent
[23] = system: UACC-62; conditions: Homo sapiens, UACC-62 (Melanoma), read-out: Cell Inhibition Percent
[24] = system: SK-OV-3; conditions: Homo sapiens, SK-OV-3 (ovarian cancer), read-out: Cell Inhibition Percent
[25] = system: BT-549; conditions: Homo sapiens, BT-549 (Breast Cancer), read-out: Cell Inhibition Percent
[26] = system: MOLT-4; conditions: Homo sapiens, MOLT-4 (Leukemia), read-out: Cell Inhibition Percent
[27] = system: SF-539; conditions: Homo sapiens, SF-539 (CNS cancer), read-out: Cell Inhibition Percent
[28] = system: K-562; conditions: Homo sapiens, K562, K-562 (Leukemia), read-out: Cell Inhibition Percent
[29] = system: SNB-19; conditions: Homo sapiens, SNB-19 (CNS cancer), read-out: Cell Inhibition Percent
[30] = system: NCI-H522; conditions: Homo sapiens, NCI-H522 (Non-Small Cell Lung Cancer), read-out: Cell Inhibition Percent
[31] = system: ACHN; conditions: Homo sapiens, ACHN (Renal Cancer), read-out: Cell Inhibition Percent

Structure (SMILES)	inhibition at 10 µM [1]	inhibition at 10 µM [2]	inhibition at 10 µM [3]	inhibition at 10 µM [4]	inhibition at 10 µM [5]	inhibition at 10 µM [6]	inhibition at 10 µM [7]	inhibition at 10 µM [8]	inhibition at 10 µM [9]	inhibition at 10 µM [10]	inhibition at 10 µM [11]	inhibition at 10 µM [12]	inhibition at 10 µM [13]	inhibition at 10 µM [14]	inhibition at 10 µM [15]	inhibition at 10 µM [16]	inhibition at 10 µM [17]	inhibition at 10 µM [18]	inhibition at 10 µM [19]	inhibition at 10 µM [20]	other results
O=C(N/N=C/c1ccc(O)cc1)c1ccc2[nH]c(-c3ccc(Cl)cc3)nc2c1 [Compound 4i, N′-(4-Hydroxybenzylidene)-2-(4-chlorophenyl)-1H-benzimidazole-5-carbohydrazide]	0%	0%	0%	0%	1.91%	0%	2.85%	13.7%	0%	0%	5.94%	0%	13.6%	0%	0%	2.26%	0%	0%	0%	0%	inhibition at 10 µM [21]: 0%; inhibition at 10 µM [22]: 20.6%; inhibition at 10 µM [23]: 5.2%; inhibition at 10 µM [24]: 5.09%; inhibition at 10 µM [25]: 0%; inhibition at 10 µM [26]: 15.6%; inhibition at 10 µM [27]: 1.95%; inhibition at 10 µM [28]: 0.25%; inhibition at 10 µM [29]: 0%; inhibition at 10 µM [30]: 9.85%; inhibition at 10 µM [31]: 4.33%
CCNC(=S)NNC(=O)c1ccc2[nH]c(-c3ccc(Cl)cc3)nc2c1 [Compound 5]	1.07%	2.33%	0.87%	5.13%	17.1%	0%	7.97%	1.33%	0%	5.54%	9.75%	0%	86.9%	1.09%	0%	88.9%	0%	0%	0%	1.06%	inhibition at 10 µM [21]: 10.1%; inhibition at 10 µM [22]: 9.79%; inhibition at 10 µM [23]: 1.88%; inhibition at 10 µM [24]: 0.37%; inhibition at 10 µM [25]: 0%; inhibition at 10 µM [26]: 90%; inhibition at 10 µM [27]: 12.2%; inhibition at 10 µM [28]: 88.4%; inhibition at 10 µM [29]: 2.37%; inhibition at 10 µM [30]: 5.4%; inhibition at 10 µM [31]: 6.31%
CCn1c(-c2ccc3[nH]c(-c4ccc(Cl)cc4)nc3c2)n[nH]c1=S [Compound 6, 4-ethyl-5-(2-(4-chlorophenyl)-1H-benzimidazol-5-yl)-2,4-dihydro-3H-1,2,4triazole-3-thione]	0%	2.07%	1.71%	0.6%	7.78%	0%	0%	1.04%	0%	0%	1.05%	0%	0%	0.32%	0%	17.5%	0%	0%	0%	0%	inhibition at 10 µM [21]: 0%; inhibition at 10 µM [22]: 1.97%; inhibition at 10 µM [23]: 1.04%; inhibition at 10 µM [24]: 0%; inhibition at 10 µM [25]: 7.91%; inhibition at 10 µM [26]: 2.85%; inhibition at 10 µM [27]: 3.69%; inhibition at 10 µM [28]: 1.43%; inhibition at 10 µM [29]: 0%; inhibition at 10 µM [30]: 1.85%; inhibition at 10 µM [31]: 0%
